Values joined by “and” are separate entries in the source; they are usually repeats but may differ in a detail not shown here. Identical values can stand only once. “Also recorded” adds a separate entry of the source. Like-named read-outs stand apart in the source and are kept apart here.
How the values were obtained:
[1] = target: IL-1β (Homo sapiens, UniProt P01584); assay: protein-observed 1H-13C-HMQC NMR binding (I/Io of Leu60 Cδ1H3); set-up: Mature hIL-1β was expressed in Escherichia coli; made in house; host or cells: Escherichia coli BL21 (DE3), pET17b; settings: hIL-1β 50 µM, 500 µM compound
Chain of IL-1β (P01584 117-269): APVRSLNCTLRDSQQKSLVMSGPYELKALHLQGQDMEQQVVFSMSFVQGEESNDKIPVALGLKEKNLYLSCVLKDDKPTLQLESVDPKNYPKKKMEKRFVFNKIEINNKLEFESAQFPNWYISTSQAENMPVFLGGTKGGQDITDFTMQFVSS
Experimental: ^1H–^13C- and ^1H–^15N-HMQC spectra were recorded on Bruker AVANCE 600 MHz and 800 MHz spectrometers equipped with TXI-cryocooled probeheads. In ligand binding experiments, protein concentrations were typically 50 μM in PBS, pH 7.4. Backbone assignments of hIL-1β in the ligand-bound state and unliganded state were obtained by a combination of a 3D triple resonance experiment HNCACB and a ^15N-edited NOESY spectrum, which were processed using TOPSPIN 3.2 and analyzed using CcpNmr AnalysisAssign 3.1.0[46]. ^15N-CEST experiments were run at weak B1 radiofrequency fields of 25 and 12.5 Hz on a Bruker AVANCE 800 MHz spectrometer with 113 increments and a total sweep width of 28 ppm in the pseudo-3D dimension. Peak intensities were extracted by fitting pseudo-Voigt lineshape models using peakipy (https://github.com/j-brady/peakipy). Fitted peak intensities were subsequently used to generate CEST profiles, and exchange parameters were fitted using ChemEx (https://github.com/gbouvignies/ChemEx).
Supplementary Figure 2. 13C-NMR and 19F-NMR reporter assays to monitor early
13C-HMQC spectra of hIL-1b (50 µM) were acquired in the presence (red) and absence (blue) of 500
µM compound and rows were extracted at the w1-frequency of the peak corresponding to Leu60 […]

[2] = target: T1, IL-1α (Homo sapiens, UniProt P01583); assay: TR-FRET IL-1α/hIL-1R1 receptor displacement assay; assay type: biochemical; settings: read-out: TR-FRET IL-1α IC50
T1 sequence (P01583 113-271): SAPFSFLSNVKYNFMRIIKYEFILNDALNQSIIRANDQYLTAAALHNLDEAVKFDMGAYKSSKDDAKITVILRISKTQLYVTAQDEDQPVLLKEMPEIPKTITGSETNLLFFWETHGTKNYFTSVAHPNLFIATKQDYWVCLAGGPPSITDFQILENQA
Experimental: After 1 h incubation at room temperature, hIL-1R1 (1–332; Alexa 647 labeled; 50 nM final concentration) and anti-His-Europium W1024 (Perkin Elmer; Cat.No. AD0401, 1 nM final concentration) were added to a final volume of 10 μl per well. After 1 h of incubation at room temperature, time-resolved fluorescence was measured at λexc = 320 ± 20 nm, λem = 620 ± 25 nm/665 ± 25 nm using a Pherastar FSX plate reader. All experiments were run in triplicates. The data provided a typical saturation-binding curve, and the IC50 values were calculated by fitting the results to the Hill equation using Prism 7.0 and the in-house software Helios.

[3] = system: normal human dermal fibroblasts stimulated with hIL-1β; assay: Human fibroblast IL-6 release assay, hIL-1β stimulated; assay type: cell-based; set-up: IL-6, average / inhibition, replicates of EXP1, EXP2, EXP3 / inhibition, Mean / IL-1beta (mean, SD): mean readout (IL-6 release): unit not given here; settings: for IL-6, average / IL-6, curve fit: per experiment; for % Inhibition (EXP1-EXP3, single experiments) / % Inhibition, Mean: Figure 3b; for % Inhibition, Mean: mean of 3 experiments; for Mean OD (OD 450nm) / IL-1beta (mean, SD): mean readout (IL-6 release): Figure 3c; for Mean OD (OD 450nm): compound 1 nM; for IL-1beta (mean, SD): mean readout (IL-6 release): compound @ 1nM
Experimental: (§1) We used HEK-Blue™ IL-1β cells that respond specifically to IL-1 (# hkb-il1b, InvivoGen). These cells can detect IL-1α and IL-1β, as these cytokines bind to the same receptor, IL-1R1. They express a Seap reporter gene under the control of the IFN-β minimal promoter fused to five NF-kappaB and five AP-1 binding sites. Thirty microliters (300,000 cells/ml) per well of a 384-well plate were plated overnight. Cells were then stimulated with graded concentrations of cytokines (hIL-1α or hIL-1β) in the absence or presence of canakinumab (Ilaris®, ILARI LYVI 150MG 22GLW.012, batch U003 0409)[22], anakinra (Kineret®, 100 mg/0.67 ml injectable solution, Sobi)[23], or compound (S)-2 (compounds were pre-mixed for 1 h with the cytokine prior to addition to cells) and further incubated overnight before assessment of Seap activity.
(§2) Normal human dermal fibroblasts (NHDF) from Clonetics^TM (LONZA, Cat # CC-2509 (NHDF-Neo), Lot # 0000234242, used at passage ≤14) were seeded at a density of 5000 cells/well in 100 μL of culture medium using 96-well plates (flat bottom, TCT). Treatment with cytokines/compounds was performed as described above. Cells were incubated for another 6 h and were subsequently spun down (320g/3 min). IL-6 was measured in the supernatant by ELISA (BioLegend, # 430503) or HTRF (Cisbio, #62HIL06PEH).

[4] = system: normal human dermal fibroblasts stimulated with hIL-1α; assay: Human fibroblast IL-6 release assay, hIL-1α stimulated; assay type: cell-based; set-up: IL-1alpha (mean, SD): mean readout (IL-6 release): unit not given here; settings: Figure 3c; for Mean OD (OD 450nm): compound 1 nM; for IL-1alpha (mean, SD): mean readout (IL-6 release): compound @ 1nM
Experimental: as §1, §2

[5] = system: HEK-Blue IL-1β cells stimulated with hIL-1α; assay: HEK293 reporter gene assay, hIL-1α as trigger; assay type: cell-based, human; settings: inhibitor 3nM
Experimental: as §1

[6] = Homo sapiens, Fibroblast, 6 h, human dermal fibroblasts, hIL-1β, 6 h, read-out: IL-6 release IC50
[7] = Homo sapiens, Fibroblast, source data, read-out: IL-6 IC50, individual experiments
[8] = Canakinumab concentration 0.00457247 (unit not given)
[9] = Canakinumab concentration 0.0137174 (unit not given)
[10] = Canakinumab concentration 0.0411523 (unit not given)
[11] = Canakinumab concentration 0.123457 (unit not given)
[12] = Canakinumab concentration 0.37 (unit not given)
[13] = Canakinumab concentration 1.11 (unit not given)
[14] = Canakinumab concentration 3.33 (unit not given)

Compound: Cc1ccc2c(c1)NC(=O)C2(O)c1cc(-c2ccc(C(=O)O)cc2)ccc1O (stereo not drawn) [Compound 10]
- I/Io (ratio of peak intensities of Leu60 Cδ1H3 in 1H-13C-HMQC spectra in presence and absence of ligand) [1]: 0.1 (N = 1)
- IC50 [2]: > 200 µM
- IL-6, average ([3]; 0.3 uM): 4.183
- IL-6, curve fit ([3]; 0.3 uM): 2.28E-12
- IL-6, average ([3]; 1.2 uM): 7.793
- IL-6, curve fit ([3]; 1.2 uM): 3.34E-09
- IL-6, average ([3]; 3 uM): 7.203
- IL-6, curve fit ([3]; 3 uM): 4.25E-07
- IL-6, average ([3]; 12 uM): 4.254
- IL-6, curve fit ([3]; 12 uM): 0.0006137
- IL-6, average ([3]; 33 uM (Cpd 10/11 series)): 6.569
- IL-6, curve fit ([3]; 33 uM (Cpd 10/11 series)): 0.1292
- IL-6, average ([3]; 99 uM): 29.3257
- IL-6, curve fit ([3]; 99 uM): 29.6479
- IL-6, average ([3]; 300 uM): 100.311
- IL-6, curve fit ([3]; 300 uM): 99.3118
- IC50 [3, 6]: 117 µM
- IC50 [3, 7]: 117 µM

Compound: O=C(O)c1ccccc1-c1ccc(O)c(C2(O)C(=O)Nc3cc(Cl)ccc32)c1 (stereo not drawn) [Compound 11]
- I/Io (ratio of peak intensities of Leu60 Cδ1H3 in 1H-13C-HMQC spectra in presence and absence of ligand) [1]: <0.1 (N = 1)
- IC50 [2]: > 200 µM
- IL-6, average ([3]; 99 uM): 38.1953 and 26.9144
- IL-6, curve fit ([3]; 99 uM): 38.6393 and 27.5847
- IL-6, average ([3]; 300 uM): 100.608 and 103.181
- IL-6, curve fit ([3]; 300 uM): 97.9064 and 99.9483
- IC50 [3, 6]: 112 ± 1 µM
- IC50 [3, 7]: 111 µM
- IC50 ([3]; source data, read-out: IL-6 IC50, individual experiments): 113 µM

Compound: canakinumab: anti-hIL-1β antibody [reference compound]
- Mean OD (OD 450nm) ([4]; hu IL-1A 0 pg/mL): 0.041
- Mean OD (OD 450nm) ([4]; hu IL-1A 40 pg/mL): 0.388
- Mean OD (OD 450nm) ([4]; hu IL-1A 80 pg/mL): 0.589
- Mean OD (OD 450nm) ([4]; hu IL-1A 120 pg/mL): 0.693
- Mean OD (OD 450nm) ([4]; hu IL-1A 160 pg/mL): 0.774
- Mean OD (OD 450nm) ([4]; hu IL-1A 200 pg/mL): 0.785
- IL-1alpha (mean, SD): mean readout (IL-6 release) ([4]; hu IL-1a 0 pg/mL): 0
- IL-1alpha (mean, SD): mean readout (IL-6 release) ([4]; hu IL-1a 40 pg/mL): 2114.2
- IL-1alpha (mean, SD): mean readout (IL-6 release) ([4]; hu IL-1a 80 pg/mL): 3604.7
- IL-1alpha (mean, SD): mean readout (IL-6 release) ([4]; hu IL-1a 120 pg/mL): 4369.8
- IL-1alpha (mean, SD): mean readout (IL-6 release) ([4]; hu IL-1a 160 pg/mL): 4969.2
- IL-1alpha (mean, SD): mean readout (IL-6 release) ([4]; hu IL-1a 200 pg/mL): 5051.1
- reporter gene assay signal, mean (Figure 3d) ([5]; IL-1alpha 3.04596 pg/ml): 0.08
- reporter gene assay signal, mean (Figure 3d) ([5]; IL-1alpha 6.09192 pg/ml): 0.12
- reporter gene assay signal, mean (Figure 3d) ([5]; IL-1alpha 12.1838 pg/ml): 0.19
- reporter gene assay signal, mean (Figure 3d) ([5]; IL-1alpha 24.3677 pg/ml): 0.36
- reporter gene assay signal, mean (Figure 3d) ([5]; IL-1alpha 48.7353 pg/ml): 0.66
- reporter gene assay signal, mean (Figure 3d) ([5]; IL-1alpha 97.4707 pg/ml): 1.07
- reporter gene assay signal, mean (Figure 3d) ([5]; IL-1alpha 194.941 pg/ml): 1.44
- reporter gene assay signal, mean (Figure 3d) ([5]; IL-1alpha 389.883 pg/ml): 1.69
- reporter gene assay signal, mean (Figure 3d) ([5]; IL-1alpha 779.766 pg/ml): 1.8
- reporter gene assay signal, mean (Figure 3d) ([5]; IL-1alpha 1559.53 pg/ml): 1.86
- reporter gene assay signal, mean (Figure 3d) ([5]; IL-1alpha 3119.06 pg/ml): 1.88
- reporter gene assay signal, mean (Figure 3d) ([5]; IL-1alpha 6238.12 pg/ml): 1.91
- reporter gene assay signal, mean (Figure 3d) ([5]; IL-1alpha 12476.2 pg/ml): 1.92
- reporter gene assay signal, mean (Figure 3d) ([5]; IL-1alpha 24952.5 pg/ml): 2
- reporter gene assay signal, mean (Figure 3d) ([5]; IL-1alpha 49905 pg/ml): 1.98
- block of hIL-1β driven IL-6 release [3]: fully blocked; also recorded: selectively inhibited IL-1β driven activity
- % Inhibition (EXP1-EXP3, single experiments) [3, 8]: 15.5% and 11.1% and 14.6%
- % Inhibition, Mean [3, 8]: 13.7%
- % Inhibition (EXP1-EXP3, single experiments) [3, 9]: 23.7% and 27.7% and 26.5%
- % Inhibition, Mean [3, 9]: 26%
- % Inhibition (EXP1-EXP3, single experiments) [3, 10]: 29% and 29.6% and 31.5%
- % Inhibition, Mean [3, 10]: 30%
- % Inhibition (EXP1-EXP3, single experiments) [3, 11]: 46.1% and 41.8% and 58.9%
- % Inhibition, Mean [3, 11]: 48.9%
- % Inhibition (EXP1-EXP3, single experiments) [3, 12]: 71.6% and 66.1% and 70.6%
- % Inhibition, Mean [3, 12]: 69.4%
- % Inhibition (EXP1-EXP3, single experiments) [3, 13]: 91.2% and 93.8% and 92.3%
- % Inhibition, Mean [3, 13]: 92.4%
- % Inhibition (EXP1-EXP3, single experiments) [3, 14]: 99.3% and 99.2% and 98.7%
- % Inhibition, Mean [3, 14]: 99%
- Mean OD (OD 450nm) ([3]; hu IL-1b 0 pg/mL): 0.033
- IL-1beta (mean, SD): mean readout (IL-6 release) ([3]; hu IL-1b 0 pg/mL): 0
- Mean OD (OD 450nm) ([3]; hu IL-1b 40 pg/mL): 0.046
- IL-1beta (mean, SD): mean readout (IL-6 release) ([3]; hu IL-1b 40 pg/mL): 0
- Mean OD (OD 450nm) ([3]; hu IL-1b 80 pg/mL): 0.099
- IL-1beta (mean, SD): mean readout (IL-6 release) ([3]; hu IL-1b 80 pg/mL): 0
- Mean OD (OD 450nm) ([3]; hu IL-1b 120 pg/mL): 0.15
- IL-1beta (mean, SD): mean readout (IL-6 release) ([3]; hu IL-1b 120 pg/mL): 353.7
- Mean OD (OD 450nm) ([3]; hu IL-1b 160 pg/mL): 0.229
- IL-1beta (mean, SD): mean readout (IL-6 release) ([3]; hu IL-1b 160 pg/mL): 936.8
- Mean OD (OD 450nm) ([3]; hu IL-1b 200 pg/mL): 0.252
- IL-1beta (mean, SD): mean readout (IL-6 release) ([3]; hu IL-1b 200 pg/mL): 1110.8

— publication PMC10484922, “Discovery of a selective and biologically active low-molecular weight antagonist of human interleukin-1β” (Nature Communications, 2023)
